Data: patent US9676754B2, “Triazolone compounds and uses thereof” (Inception 2, Inc., priority 2012, dated 2017)
Read-outs that look alike come from different tables or passages of the source.

Legend:
[1] = biological target: T1, Glucocorticoid Receptor (Homo sapiens, UniProt P04150); assay: Target selectivity counterscreen, Glucocorticoid Receptor reporter assay; type: cell-based; conditions: receptor agonist at ~EC80
T1 construct: host or cells: engineered reporter cells of the kit
T1 sequence (P04150 1-777): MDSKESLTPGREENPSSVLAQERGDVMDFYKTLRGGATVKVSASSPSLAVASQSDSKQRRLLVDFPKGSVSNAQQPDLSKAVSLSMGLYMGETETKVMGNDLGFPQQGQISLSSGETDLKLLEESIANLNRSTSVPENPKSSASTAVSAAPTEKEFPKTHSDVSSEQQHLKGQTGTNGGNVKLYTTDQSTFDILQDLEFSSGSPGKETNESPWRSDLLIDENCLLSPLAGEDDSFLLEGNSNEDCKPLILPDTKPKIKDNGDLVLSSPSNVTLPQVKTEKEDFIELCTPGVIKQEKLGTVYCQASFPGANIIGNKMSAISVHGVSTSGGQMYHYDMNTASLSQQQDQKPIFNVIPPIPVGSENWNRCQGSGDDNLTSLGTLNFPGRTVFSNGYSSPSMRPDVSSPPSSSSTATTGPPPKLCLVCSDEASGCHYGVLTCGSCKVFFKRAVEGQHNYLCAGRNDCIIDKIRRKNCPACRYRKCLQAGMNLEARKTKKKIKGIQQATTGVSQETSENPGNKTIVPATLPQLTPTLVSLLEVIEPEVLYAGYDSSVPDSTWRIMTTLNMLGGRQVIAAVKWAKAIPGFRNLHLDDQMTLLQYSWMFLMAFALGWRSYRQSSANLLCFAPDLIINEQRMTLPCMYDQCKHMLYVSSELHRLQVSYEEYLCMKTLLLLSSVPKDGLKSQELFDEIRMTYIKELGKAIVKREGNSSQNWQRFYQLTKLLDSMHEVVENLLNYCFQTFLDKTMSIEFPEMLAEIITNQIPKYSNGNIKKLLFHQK
Experimental: Target Selectivity Assays
To determine species selectivity, a Mouse PPARα Reporter Assay System was used (Indigo Biosciences, Cat. #M00111). Activity of test compounds to antagonize or agonize other isoforms of human PPAR, for example β/δ and γ, were assessed using the corresponding kits from Indigo Biosciences (Cat. #IB00121 and #IB00101, respectively). In addition to PPAR activity, compounds were also screened for activity against other nuclear hormone receptors including Estrogen Receptor β, Glucocorticoid Receptor and Thyroid Receptor β using commercially available kits (Indigo Biosciences, Cat. #IB00411, IB00201 and IB01101, respectively). Each assay system from Indigo Biosciences uses technology analogous to the human PPARα kit, with the variance being that the cells used for each assay were engineered to over-express the receptor of interest. In addition, the appropriate receptor agonist (included with each kit) was used at ˜EC80 for assays in which antagonist potency was being assessed.

[2] = biological target: T2, Human PPARα (Homo sapiens, UniProt Q07869); assay: Human PPARα Reporter Assay (luciferase); type: cell-based
T2 construct: host or cells: proprietary non-human mammalian cells
T2 sequence (Q07869 1-468): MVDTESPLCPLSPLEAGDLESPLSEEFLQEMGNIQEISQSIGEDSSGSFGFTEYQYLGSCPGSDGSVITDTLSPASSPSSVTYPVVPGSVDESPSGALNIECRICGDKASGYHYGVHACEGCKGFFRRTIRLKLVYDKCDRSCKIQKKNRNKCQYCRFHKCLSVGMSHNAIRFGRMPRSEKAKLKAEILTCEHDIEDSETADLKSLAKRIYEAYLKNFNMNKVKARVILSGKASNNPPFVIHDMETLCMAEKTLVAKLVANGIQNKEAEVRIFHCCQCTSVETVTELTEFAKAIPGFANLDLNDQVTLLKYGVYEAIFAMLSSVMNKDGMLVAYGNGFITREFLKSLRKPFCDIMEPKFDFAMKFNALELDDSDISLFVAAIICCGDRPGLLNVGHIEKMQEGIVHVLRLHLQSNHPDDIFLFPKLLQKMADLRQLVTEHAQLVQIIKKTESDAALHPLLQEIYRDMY
Experimental: Human PPARα Reporter Assay
The screening of test compounds for agonist or antagonist activities against human PPARα receptors was performed using a commercial kit, Human PPARα Reporter Assay System (Indigo Biosciences, Cat. #IB00111).
This nuclear receptor assay system utilizes proprietary non-human mammalian cells engineered to provide constitutive, high-level expression of Human PPARα. Because these cells incorporate a PPARα-responsive luciferase reporter gene, quantifying expressed luciferase activity provides a sensitive surrogate measure of PPARα activity in the treated cells. The primary application of this reporter assay system is in the screening of test samples to quantify any functional activity, either agonist or antagonist, that they may exert against human PPARα. […] Briefly, the reporter cells are dispensed into wells of the assay plate and then immediately dosed with test compounds. Following an overnight incubation, the treatment media are discarded and Luciferase Detection Reagent (LDR) is added. The intensity of light emission from the ensuing luciferase reaction provides a sensitive measure that is directly proportional to the relative level of PPARα activation in the reporter cells.

How did the IC50 [1] turn out when CCOc1ccc(-c2cccc(CCCc3nn(Cc4ccc(C(C)(C)C)cc4)c(=O)n3CC)c2)cc1CC(=O)O [Example 6, 2-(3′-(3-(1-(4-(tert-Butyl)benzyl)-4-ethyl-5-oxo-4,5-dihydro-1H-1,2,4-triazol-3-yl)propyl)-4-ethoxy-[1,1′-biphenyl]-3-yl)acetic acid] was run?
Its IC50 is 18200 nM.

And the IC50 ([2]; antagonist activity, luciferase reporter cells, overnight incubation, read-out: Human PPARα Reporter Assay-Luciferase IC50)?
Its IC50 is 58 nM.

And the IC50 ([2]; counterscreen assay results table, read-out: PPAR alpha IC50)?
The IC50 was 58 nM.
